Laboratory results taken from US6211214A, “Biphenyl ether oxazolines and their use as pest-control agents” (Bayer Aktiengesellschaft, priority 1995, dated 2001).

Test: log p (partition coefficient octanol/water, determined experimentally from reversed phase HPLC)
Type: physicochemical
Conditions: for chromatographic logP: reversed phase hplc
Text: [log p=logarithm of the partition coefficient p of the substance between the solvents octanol and water, determined experimentally from reversed phase HPLC]

## CC(C)C(C#N)Oc1ccc(-c2ccc(C3COC(c4c(F)cccc4F)=N3)cc2)cc1Cl (centres unmarked) [Example 102]
  chromatographic logP: 4.84

## Cc1ccc(C(=O)COc2ccc(-c3ccc(C4COC(c5c(F)cccc5F)=N4)cc3)cc2)cc1C (centres unmarked) [Example 148]
  chromatographic logP: 4.62

## CCON=C(C)C(C)(C)Oc1ccc(-c2ccc(C3COC(c4c(F)cccc4F)=N3)cc2)cc1Cl (centres unmarked) [Example 171]
  chromatographic logP: 5.05

## CON=C(COc1ccc(-c2ccc(C3COC(c4c(F)cccc4F)=N3)cc2)cc1)c1ccc(CC(C)C)cc1 (centres unmarked) [Example 154]
A isomer
  chromatographic logP: 6.34
B isomer
  chromatographic logP: 6.05

## CCON=C(C)COc1ccc(-c2ccc(C3COC(c4c(F)cccc4Cl)=N3)cc2)cc1 (centres unmarked) [Example 81]
  chromatographic logP: 4.98

## CON=C(COc1ccc(-c2ccc(C3COC(c4c(F)cccc4F)=N3)cc2)cc1)c1ccc(Cl)c(C)c1 (centres unmarked) [Example 140]
A isomer
  chromatographic logP: 5.57
B isomer
  chromatographic logP: 5.88

## CC(COc1ccc(-c2ccc(C3COC(c4c(F)cccc4F)=N3)cc2)cc1)=NOCc1ccccc1 (centres unmarked) [Example 82]
A isomer
  chromatographic logP: 5.15

## CCOC(=O)C(C)Oc1ccc(-c2ccc(C3COC(c4c(F)cccc4F)=N3)cc2)cc1 (centres unmarked) [Example 3, 2-(2,6-difluorophenyl)-4-[4'-(1-ethoxycarbonyl-eth-1-yl-oxy)-biphenyl-4-yl]-1,3-oxazoline]
  chromatographic logP: 4.12

## CON=C(COc1ccc(-c2ccc(C3COC(c4c(F)cccc4F)=N3)cc2)cc1)c1ccc(OC(F)(F)C(F)F)cc1 (centres unmarked) [Example 157]
A isomer
  chromatographic logP: 5.28
B isomer
  chromatographic logP: 5.04

## CO/N=C(/COc1ccc(-c2ccc(C3COC(c4c(F)cccc4F)=N3)cc2)cc1)C1CC1 (centres unmarked) [Example 24]
E isomer
  chromatographic logP: 4.9

## CCON=C(C)C(C)Oc1ccc(-c2ccc(C3COC(c4ccccc4Cl)=N3)cc2)cc1 (centres unmarked) [Example 59]
A isomer
  chromatographic logP: 5.44
B isomer
  chromatographic logP: 5.56

## CCN(CC)C(=O)COc1ccc(-c2ccc(C3COC(c4c(F)cccc4F)=N3)cc2)cc1 (centres unmarked) [Example 15]
  chromatographic logP: 3.35

## C=CCON=C(C)C(C)Oc1ccc(-c2ccc(C3COC(c4c(F)cccc4F)=N3)cc2)cc1 (centres unmarked) [Example 88]
A isomer
  chromatographic logP: 5.04
B isomer
  chromatographic logP: 5.13

## CC(=O)C(C)(C)Oc1ccc(-c2ccc(C3COC(c4c(F)cccc4Cl)=N3)cc2)cc1 (centres unmarked) [Example 151]
  chromatographic logP: 4.48

## CC(C)(C(=O)COc1ccc(-c2ccc(C3COC(c4c(F)cccc4F)=N3)cc2)cc1)C(Cl)Cl (centres unmarked) [Example 71]
  chromatographic logP: 4.55

## O=C(COc1ccc(-c2ccc(C3COC(c4c(F)cccc4Cl)=N3)cc2)cc1)c1ccccc1 (centres unmarked) [Example 93]
  chromatographic logP: 4.28

## CCON=C(C)C(C)Oc1ccc(-c2ccc(C3COC(c4c(F)cccc4F)=N3)cc2)cc1 (centres unmarked) [Example 48]
A isomer
  chromatographic logP: 5.02
B isomer
  chromatographic logP: 5.13

## CCON=C(COc1ccc(-c2ccc(C3COC(c4c(F)cccc4F)=N3)cc2)cc1)C(C)(C)C (centres unmarked) [Example 79]
  chromatographic logP: 5.95

## CON=C(COc1ccc(-c2ccc(C3COC(c4ccccc4Cl)=N3)cc2)cc1)c1ccccc1 (centres unmarked) [Example 52]
  chromatographic logP: 5.4

## CCON=C(COc1ccc(-c2ccc(C3COC(c4c(F)cccc4F)=N3)cc2)cc1)c1ccc(Cl)c(C)c1 (centres unmarked) [Example 141]
A isomer
  chromatographic logP: 5.93
B isomer
  chromatographic logP: 6.23

## CCON=C(C)C(C)Oc1ccc(-c2ccc(C3COC(c4c(F)cccc4F)=N3)cc2)cc1 (single isomer, unassigned) [Example 70]
  chromatographic logP: 5.12

## CON=C(C)C(C)Oc1ccc(-c2ccc(C3COC(c4c(F)cccc4F)=N3)cc2)cc1Cl (centres unmarked) [Example 127]
A isomer
  chromatographic logP: 5.06
B isomer
  chromatographic logP: 5.15

## O=C(COc1ccc(-c2ccc(C3COC(c4ccccc4Cl)=N3)cc2)cc1)c1ccccc1 (centres unmarked) [Example 49]
  chromatographic logP: 4.38

## CCON=C(C)COc1ccc(-c2ccc(C3COC(c4c(F)cccc4F)=N3)cc2)cc1Cl (centres unmarked) [Example 87]
A isomer
  chromatographic logP: 5.39
B isomer
  chromatographic logP: 5.19

## CON=C(COc1ccc(-c2ccc(C3COC(c4c(F)cccc4F)=N3)cc2)cc1)c1ccc(C)c(C)c1 (centres unmarked) [Example 189]
A isomer
  chromatographic logP: 5.58
B isomer
  chromatographic logP: 5.29

## CCON=C(COc1ccc(-c2ccc(C3COC(c4c(F)cccc4F)=N3)cc2)cc1)C1CC1 (centres unmarked) [Example 56]
A isomer
  chromatographic logP: 5.28
B isomer
  chromatographic logP: 4.92

## CCON=C(COc1ccc(-c2ccc(C3COC(c4c(F)cccc4F)=N3)cc2)cc1)c1cccc(C(F)(F)F)c1 (centres unmarked) [Example 122]
A isomer
  chromatographic logP: 6.18
B isomer
  chromatographic logP: 5.87

## CCOC(=O)C(CC)Oc1ccc(-c2ccc(C3COC(c4c(F)cccc4F)=N3)cc2)cc1 (centres unmarked) [Example 11]
  chromatographic logP: 4.53

## CON=C(C)C(C)(C)Oc1ccc(-c2ccc(C3COC(c4c(F)cccc4F)=N3)cc2)cc1Cl (centres unmarked) [Example 170]
  chromatographic logP: 5.61

## CCON=C(C)C(C)(C)Oc1ccc(-c2ccc(C3COC(c4c(F)cccc4Cl)=N3)cc2)cc1 (centres unmarked) [Example 161]
  chromatographic logP: 5.88

## CON=C(COc1ccc(-c2ccc(C3COC(c4c(F)cccc4F)=N3)cc2)cc1)c1ccc(C(F)F)cc1 (centres unmarked) [Example 138]
A isomer
  chromatographic logP: 4.78
B isomer
  chromatographic logP: 4.98

## CC(COc1ccc(-c2ccc(C3COC(c4c(F)cccc4Cl)=N3)cc2)cc1)=NOC(C)C (centres unmarked) [Example 124]
A isomer
  chromatographic logP: 5.78
B isomer
  chromatographic logP: 5.88

## CC(C)C(C)(C)C(=O)COc1ccc(-c2ccc(C3COC(c4c(F)cccc4F)=N3)cc2)cc1 (centres unmarked) [Example 68]
  chromatographic logP: 4.55

## C=CCON=C(C)COc1ccc(-c2ccc(C3COC(c4ccccc4Cl)=N3)cc2)cc1 (centres unmarked) [Example 142]
A isomer
  chromatographic logP: 5.12
B isomer
  chromatographic logP: 5.2

## CON=C(COc1ccc(-c2ccc(C3COC(c4c(F)cccc4F)=N3)cc2)cc1)c1ccc(C(F)(F)F)cc1 (centres unmarked) [Example 111]
  chromatographic logP: 5.53

## CC(=O)C(C)Oc1ccc(-c2ccc(C3COC(c4ccccc4Cl)=N3)cc2)cc1Cl (centres unmarked) [Example 113]
  chromatographic logP: 4.51

## CCON=C(COc1ccc(-c2ccc(C3COC(c4c(F)cccc4F)=N3)cc2)cc1)c1ccc(OC(F)(F)C(F)F)cc1 (centres unmarked) [Example 158]
A isomer
  chromatographic logP: 5.59
B isomer
  chromatographic logP: 5.35

## CCON=C(C)C(C)Oc1ccc(-c2ccc(C3COC(c4ccccc4Cl)=N3)cc2)cc1Cl (centres unmarked) [Example 144]
A isomer
  chromatographic logP: 5.83
B isomer
  chromatographic logP: 6.01

## CON=C(C)C(C)(C)Oc1ccc(-c2ccc(C3COC(c4c(F)cccc4Cl)=N3)cc2)cc1 (centres unmarked) [Example 160]
  chromatographic logP: 5.45

## CCON=C(C)C(C)(C)Oc1ccc(-c2ccc(C3COC(c4ccccc4Cl)=N3)cc2)cc1Cl (centres unmarked) [Example 176]
  chromatographic logP: 6.49

## O=C(COc1ccc(-c2ccc(C3COC(c4c(F)cccc4F)=N3)cc2)cc1)c1cc(Cl)ccc1Cl (centres unmarked) [Example 132]
  chromatographic logP: 4.78

## CC(=NO)C(C)Oc1ccc(-c2ccc(C3COC(c4c(F)cccc4F)=N3)cc2)cc1 (centres unmarked) [Example 64]
A isomer
  chromatographic logP: 3.48
B isomer
  chromatographic logP: 3.54

## O=C(COc1ccc(-c2ccc(C3COC(c4c(F)cccc4F)=N3)cc2)cc1)c1ccc(OC(F)F)cc1 (centres unmarked) [Example 114]
  chromatographic logP: 4.16

## CC1(COc2ccc(-c3ccc(C4COC(c5c(F)cccc5F)=N4)cc3)cc2)OCCO1 (centres unmarked) [Example 98]
  chromatographic logP: 3.77

## CON=C(COc1ccc(-c2ccc(C3COC(c4c(F)cccc4F)=N3)cc2)cc1)C1CC1 (centres unmarked) [Example 26]
A isomer
  chromatographic logP: 4.9
B isomer
  chromatographic logP: 4.56

## Cc1cc(C(=O)COc2ccc(-c3ccc(C4COC(c5c(F)cccc5F)=N4)cc3)cc2)ccc1Cl (centres unmarked) [Example 117]
  chromatographic logP: 4.86

## CCOC(CCOc1ccc(-c2ccc(C3COC(c4c(F)cccc4F)=N3)cc2)cc1Cl)OCC (centres unmarked) [Example 97]
  chromatographic logP: 5.12

## CON=C(C)C(C)Oc1ccc(-c2ccc(C3COC(c4c(F)cccc4F)=N3)cc2)cc1 (centres unmarked) [Example 23]
A isomer
  chromatographic logP: 4.62
B isomer
  chromatographic logP: 4.71

## CC(=NOC(C)C)C(C)Oc1ccc(-c2ccc(C3COC(c4ccccc4Cl)=N3)cc2)cc1 (centres unmarked) [Example 136]
A isomer
  chromatographic logP: 5.88
B isomer
  chromatographic logP: 6.02

## CON=C(COc1ccc(-c2ccc(C3COC(c4c(F)cccc4F)=N3)cc2)cc1)c1ccccc1 (centres unmarked) [Example 27]
A isomer
  chromatographic logP: 4.74

## CC(COc1ccc(-c2ccc(C3COC(c4ccccc4Cl)=N3)cc2)cc1)=NOC(C)C (centres unmarked) [Example 135]
A isomer
  chromatographic logP: 5.53
B isomer
  chromatographic logP: 5.61

## CC(=O)C(C)(C)Oc1ccc(-c2ccc(C3COC(c4ccccc4Cl)=N3)cc2)cc1Cl (centres unmarked) [Example 173]
  chromatographic logP: 5.02

## CCC(Oc1ccc(-c2ccc(C3COC(c4c(F)cccc4F)=N3)cc2)cc1)C(=O)OC (centres unmarked) [Example 19]
  chromatographic logP: 4.18

## CC(=O)C(C)(C)Oc1ccc(-c2ccc(C3COC(c4ccccc4Cl)=N3)cc2)cc1 (centres unmarked) [Example 152]
  chromatographic logP: 4.56

## CCON=C(COc1ccc(-c2ccc(C3COC(c4c(F)cccc4F)=N3)cc2)cc1)c1ccc(C)cc1 (centres unmarked) [Example 134]
A isomer
  chromatographic logP: 5.42
B isomer
  chromatographic logP: 5.71

## CCON=C(COc1ccc(-c2ccc(C3COC(c4c(F)cccc4F)=N3)cc2)cc1)C1CC1 (centres unmarked) [Example 67]
A isomer
  log p: 4.72
B isomer
  log p: 4.61

## CCON=C(COc1ccc(-c2ccc(C3COC(c4c(F)cccc4F)=N3)cc2)cc1)c1ccc(C(F)(F)F)cc1 (centres unmarked) [Example 112]
A isomer
  chromatographic logP: 5.87
B isomer
  chromatographic logP: 5.57

## CCON=C(COc1ccc(-c2ccc(C3COC(c4c(F)cccc4F)=N3)cc2)cc1)c1ccc(OC)cc1 (centres unmarked) [Example 150]
A isomer
  chromatographic logP: 5.04
B isomer
  chromatographic logP: 5.27

## CCON=C(C)C(C)(C)Oc1ccc(-c2ccc(C3COC(c4c(F)cccc4F)=N3)cc2)cc1 (centres unmarked) [Example 99]
  chromatographic logP: 5.57

## CON(C)C(=O)COc1ccc(-c2ccc(C3COC(c4c(F)cccc4F)=N3)cc2)cc1 (centres unmarked) [Example 34]
  chromatographic logP: 3.07

## CCON=C(C)COc1ccc(-c2ccc(C3COC(c4c(F)cccc4F)=N3)cc2)cc1 (centres unmarked) [Example 83]
B isomer
  log p: 5.56
A isomer
  chromatographic logP: 5.49

## CON=C(COc1ccc(-c2ccc(C3COC(c4c(F)cccc4F)=N3)cc2)cc1)c1ccc(Cl)cc1 (centres unmarked) [Example 130]
A isomer
  chromatographic logP: 5.27
B isomer
  chromatographic logP: 5.54

## CC(=NOC(C)C)C(C)Oc1ccc(-c2ccc(C3COC(c4c(F)cccc4F)=N3)cc2)cc1 (centres unmarked) [Example 69]
  chromatographic logP: 4.47

## CON=C(COc1ccc(-c2ccc(C3COC(c4c(F)cccc4Cl)=N3)cc2)cc1)c1ccccc1 (centres unmarked) [Example 94]
  chromatographic logP: 5.25
